For 16 compounds, DC50 and Dmax results are on record in patent publication US20260274832A1, “COMPOUNDS AND THEIR USE IN TREATING CANCER” (ASTRAZENECA AB, priority 2023, published 2026).

The target of experiment [1] is T1, AR (L702H) in LNCaP cells (Homo sapiens, UniProt P10275, L702H/T878A).
T1 construct: engineered to introduce the mutation L702H into the AR gene using CRISPR/Cas9; endogenous in cells; host or cells: LNCaP cells edited by CRISPR/Cas9 at the AR gene
Kind of experiment: LNCaP Androgen Receptor L702H Imaging Assay (LNCaP cells engineered by CRISPR/Cas9). The format is cell-based. Particulars: LNCaP cells with AR L702H mutation, 24 h incubation; for DC50: concentration giving 50% of maximum degradation of AR (L702H) per curve fit; for Dmax: LNCaP, maximum degradation observed, normalized as % of positive control. In short, it runs like this:
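AR (L702H) degradation, expressed as DC50 and Dmax from curve fits normalized to a positive degrader control, was measured by high-content imaging of anti-AR immunofluorescence. The engineered LNCaP line was dosed over 12 concentrations for 24 h, 0.3% DMSO final, before PFA fixation.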

Experiment [2] addresses T2, AR (AR-full length) in LNCaP cells (Homo sapiens, UniProt P10275, T878A).
T2 construct: the prostate cancer cell line LNCaP (expressing AR-full length); endogenous in cells; host or cells: LNCaP
Kind of experiment: LNCaP Androgen Receptor Imaging Assay (immunofluorescence of endogenous nuclear AR). Type of experiment: cell-based. Particulars: 24 h incubation; for DC50: concentration giving 50% of maximum degradation of AR per curve fit, single experiment or average of two or more; for Dmax: LNCaP, maximum degradation observed, normalized as % of positive control (prior art AR PROTAC at 3 μM). In short, it runs like this:
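Endogenous nuclear AR level was imaged by immunofluorescence after 24 h compound exposure (12-point dose response, 0.3% DMSO, 37° C./5% CO2) in LNCaP cells. Data were expressed as % of a 3 μM prior-art AR PROTAC control and fitted (bell fit where a hook appeared) to give DC50 and maximum degradation Dmax.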

T1 sequence (P10275 whole entry L702H/T878A): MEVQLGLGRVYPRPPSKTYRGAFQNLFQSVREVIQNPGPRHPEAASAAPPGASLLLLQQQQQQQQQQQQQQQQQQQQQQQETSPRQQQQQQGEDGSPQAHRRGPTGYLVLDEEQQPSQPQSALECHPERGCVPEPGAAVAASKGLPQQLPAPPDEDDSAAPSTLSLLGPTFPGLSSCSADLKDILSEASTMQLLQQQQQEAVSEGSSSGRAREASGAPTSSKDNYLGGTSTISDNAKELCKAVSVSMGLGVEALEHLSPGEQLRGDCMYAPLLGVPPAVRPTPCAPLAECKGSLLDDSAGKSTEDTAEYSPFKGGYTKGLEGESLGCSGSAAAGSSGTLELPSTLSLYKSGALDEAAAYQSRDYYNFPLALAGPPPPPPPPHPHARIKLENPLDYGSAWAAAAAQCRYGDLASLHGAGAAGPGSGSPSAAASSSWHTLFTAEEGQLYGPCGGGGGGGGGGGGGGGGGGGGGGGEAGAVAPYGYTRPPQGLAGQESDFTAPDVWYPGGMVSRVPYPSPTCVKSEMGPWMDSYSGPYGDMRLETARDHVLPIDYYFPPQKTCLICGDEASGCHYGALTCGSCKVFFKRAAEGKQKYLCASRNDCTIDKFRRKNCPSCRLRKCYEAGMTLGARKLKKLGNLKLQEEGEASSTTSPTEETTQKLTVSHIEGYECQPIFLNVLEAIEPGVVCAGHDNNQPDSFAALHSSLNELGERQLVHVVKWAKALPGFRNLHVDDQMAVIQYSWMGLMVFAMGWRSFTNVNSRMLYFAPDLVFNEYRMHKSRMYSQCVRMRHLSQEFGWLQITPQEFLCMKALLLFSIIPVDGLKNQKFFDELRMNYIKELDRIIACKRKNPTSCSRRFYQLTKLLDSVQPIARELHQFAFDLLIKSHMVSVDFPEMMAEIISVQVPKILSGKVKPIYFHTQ
T1 sequence (Q96SW2 whole entry partner): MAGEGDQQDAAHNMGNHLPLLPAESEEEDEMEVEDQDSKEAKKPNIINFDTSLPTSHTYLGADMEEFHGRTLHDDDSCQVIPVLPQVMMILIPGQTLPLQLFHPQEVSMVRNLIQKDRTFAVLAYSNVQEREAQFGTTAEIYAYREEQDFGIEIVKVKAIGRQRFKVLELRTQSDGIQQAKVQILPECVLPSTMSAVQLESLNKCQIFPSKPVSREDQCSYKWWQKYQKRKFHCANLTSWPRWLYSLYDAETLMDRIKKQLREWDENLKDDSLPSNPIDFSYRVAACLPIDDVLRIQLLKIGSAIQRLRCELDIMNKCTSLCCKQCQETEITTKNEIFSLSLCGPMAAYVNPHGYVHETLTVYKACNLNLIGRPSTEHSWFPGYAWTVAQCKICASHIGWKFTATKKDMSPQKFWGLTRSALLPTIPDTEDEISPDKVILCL
T2 sequence (P10275 whole entry T878A): as the sequence (P10275 whole entry L702H/T878A) above, with H702L counted along it
T2 sequence (Q96SW2 whole entry partner): as the sequence (Q96SW2 whole entry partner) above

In general, DC50 refers to the concentration giving 50% degradation. Lower therefore signals a more potent degrader. The Dmax is the greatest extent of degradation seen. As to `COc1cc(N2CCN(CCCCOc3ccc(C4CCN(c5ccc(C)c6c(C#N)c[nH]c56)CC4)cc3)CC2)cc2c1C(=O)N(C1CCC(=O)NC1=O)C2=O` (stereo not shown) [Example 48, 7-{4-[4-(4-{4-[2-(2,6-Dioxopiperidin-3-yl)-7-methoxy-1,3-dioxo-2,3-dihydro-1H-isoindol-5-yl]piperazin-1-yl}butoxy)phenyl]piperidin-1-yl}-4-methyl-1H-indole-3-carbonitrile], in experiment [1], the DC50 was found to be 359 nM and the Dmax stood at 99%. In addition, in experiment [2], the DC50 worked out at 57 nM and the Dmax was 97%.
On to `COc1cc(N2CCN(CC3CCN(c4ccc(C5CCN(c6ccc(Cl)c7c(C#N)c[nH]c67)CC5)cc4)CC3)CC2)cc2c1C(=O)N(C1CCC(=O)NC1=O)C2=O` (stereo not shown) [Example 49, 4-Chloro-7-(4-{4-[4-({4-[2-(2,6-dioxopiperidin-3-yl)-7-methoxy-1,3-dioxo-2,3-dihydro-1H-isoindol-5-yl]piperazin-1-yl}methyl)piperidin-1-yl]phenyl}piperidin-1-yl)-1H-indole-3-carbonitrile], for which the DC50 in experiment [1] is 45 nM; in experiment [2], 33 nM. Also, the Dmax in experiment [1] turned out to be 97%; in experiment [2] it was 91%.
For the compound `Cc1ccc(N2CCC(c3ccc(OCCCCN4CCN(c5cc6c(cc5F)C(=O)N(C5CCC(=O)NC5=O)C6=O)CC4)cc3)CC2)c2[nH]cc(C#N)c12` (stereo not shown) [Example 50, 7-{4-[4-(4-{4-[2-(2,6-Dioxopiperidin-3-yl)-6-fluoro-1,3-dioxo-2,3-dihydro-1H-isoindol-5-yl]piperazin-1-yl}butoxy)phenyl]piperidin-1-yl}-4-methyl-1H-indole-3-carbonitrile], in experiment [1], the DC50 was 769 nM and the Dmax came out at 94%. Besides, in experiment [2], half-maximal degradation (DC50) was put at 137 nM and the Dmax is 98%.
On to `N#Cc1c[nH]c2c(N3CCC(c4ccc(N5CCC(CN6CCN(c7cc8c(cc7F)C(=O)N(C7CCC(=O)NC7=O)C8=O)CC6)CC5)cc4)CC3)ccc(Cl)c12` (stereo not shown) [Example 51, 4-Chloro-7-(4-{4-[4-({4-[2-(2,6-dioxopiperidin-3-yl)-6-fluoro-1,3-dioxo-2,3-dihydro-1H-isoindol-5-yl]piperazin-1-yl}methyl)piperidin-1-yl]phenyl}piperidin-1-yl)-1H-indole-3-carbonitrile], for which the DC50 in experiment [1] stood at 71 nM; in experiment [2], 37 nM. For the same compound, the Dmax in experiment [1] was found to be 96%; in experiment [2] it was 101%.
Regarding `N#Cc1c[nH]c2c(N3CCC(c4ccc(N5CCC(CN6CCN(c7cc8c(cc7F)C(=O)N(C7CCC(=O)NC7=O)C8=O)CC6)CC5)cc4)CC3)ccc(F)c12` (stereo not shown) [Example 52, 7-(4-{4-[4-({4-[2-(2,6-Dioxopiperidin-3-yl)-6-fluoro-1,3-dioxo-2,3-dihydro-1H-isoindol-5-yl]piperazin-1-yl}methyl)piperidin-1-yl]phenyl}piperidin-1-yl)-4-fluoro-1H-indole-3-carbonitrile], in experiment [1], the DC50 was found to be 52 nM and the Dmax was 97%. For the same compound, in experiment [2], the DC50 is 62 nM and the Dmax turned out to be 93%.
The like results for `N#Cc1c[nH]c2c(N3CCC[C@@H](c4ccc(N5CCC(CN6CCN(c7cc8c(cc7F)C(=O)N(C7CCC(=O)NC7=O)C8=O)CC6)CC5)cc4)C3)ccc(Cl)c12` (stereo partly drawn) [Example 53, 4-Chloro-7-[(3S)-3-{4-[4-({4-[2-(2,6-dioxopiperidin-3-yl)-6-fluoro-1,3-dioxo-2,3-dihydro-1H-isoindol-5-yl]piperazin-1-yl}methyl)piperidin-1-yl]phenyl}piperidin-1-yl]-1H-indole-3-carbonitrile] were, in that order, 78 nM, 103%, 30 nM and 99%.
`N#Cc1c[nH]c2c(N3CCC[C@H](c4ccc(N5CCC(CN6CCN(c7cc8c(cc7F)C(=O)N(C7CCC(=O)NC7=O)C8=O)CC6)CC5)cc4)C3)ccc(Cl)c12` (stereo partly drawn) [Example 54, 4-Chloro-7-[(3R)-3-{4-[4-({4-[2-(2,6-dioxopiperidin-3-yl)-6-fluoro-1,3-dioxo-2,3-dihydro-1H-isoindol-5-yl]piperazin-1-yl}methyl)piperidin-1-yl]phenyl}piperidin-1-yl]-1H-indole-3-carbonitrile]: in experiment [1], the 50% degradation concentration (DC50) is 52 nM and the Dmax stood at 97%. Moreover, in experiment [2], half-maximal degradation (DC50) was put at 36 nM and the Dmax was 77%.
Regarding `N#Cc1c[nH]c2c(N3CCC(c4ccc(N5CCC(CN6CCN(c7ccc8c(c7)C(=O)N(C7CCC(=O)NC7=O)C8=O)CC6)CC5)cc4)CC3)ccc(Cl)c12` (stereo not shown) [Example 55, 4-Chloro-7-(4-{4-[4-({4-[2-(2,6-dioxopiperidin-3-yl)-1,3-dioxo-2,3-dihydro-1H-isoindol-5-yl]piperazin-1-yl}methyl)piperidin-1-yl]phenyl}piperidin-1-yl)-1H-indole-3-carbonitrile], in experiment [1], the DC50 was 34 nM and the Dmax amounted to 103%. Also, in experiment [2], half-maximal degradation (DC50) was put at 33 nM and the Dmax came out at 99%.
As to `Cc1ccc(N2CCC(c3ccc(OCCCCN4CCN(c5ccc6c(c5)C(=O)N(C5CCC(=O)NC5=O)C6=O)CC4)cc3)CC2)c2[nH]cc(C#N)c12` (stereo not shown) [Example 56, 7-{4-[4-(4-{4-[2-(2,6-Dioxopiperidin-3-yl)-1,3-dioxo-2,3-dihydro-1H-isoindol-5-yl]piperazin-1-yl}butoxy)phenyl]piperidin-1-yl}-4-methyl-1H-indole-3-carbonitrile], the DC50 stood at 357 nM in experiment [1] and 61 nM in experiment [2]. The values for the Dmax in experiment [1] and in experiment [2] were 94% and 101%, respectively.
As for `N#Cc1c[nH]c2c(N3CCC(c4ccc(OCCCCN5CCN(c6ccc7c(c6)CN(C6CCC(=O)NC6=O)C7=O)CC5)cc4)CC3)cccc12` (stereo not shown) [Example 57], the values for the DC50 in experiment [1] and in experiment [2] were 31 nM and 18 nM, respectively. In addition, the Dmax in experiment [1] was found to be 79%; in experiment [2], 87%.
On the same counts, the results for `N#Cc1c[nH]c2c(N3CCC(c4ccc(OCCCCN5CCC(n6ccc7c(N8CCC(=O)NC8=O)cccc76)CC5)cc4)CC3)cccc12` [Example 58, 7-{4-[4-(4-{4-[4-(2,4-Dioxo-1,3-diazinan-1-yl)-1H-indol-1-yl]piperidin-1-yl}butoxy)phenyl]piperidin-1-yl}-1H-indole-3-carbonitrile] are 114 nM, 13 nM, 78% and 96%.
As to `N#Cc1c[nH]c2c(N3CCC(c4ccc(N5CCC(CN6CCC(n7ccc8c(N9CCC(=O)NC9=O)cccc87)CC6)CC5)cc4)CC3)cccc12` [Example 59, 7-(4-{4-[4-({4-[4-(2,4-Dioxo-1,3-diazinan-1-yl)-1H-indol-1-yl]piperidin-1-yl}methyl)piperidin-1-yl]phenyl}piperidin-1-yl)-1H-indole-3-carbonitrile], in experiment [1], the DC50 is 47 nM and the Dmax amounted to 95%. Besides, in experiment [2], half-maximal degradation (DC50) was put at 51 nM and the Dmax was determined as 88%.
`COc1cc(N2CCN(CC3CCN(c4ccc(C5CCN(c6ccc(Cl)c7c(C#N)c[nH]c67)CC5)nc4)CC3)CC2)cc2c1C(=O)N(C1CCC(=O)NC1=O)C2` (stereo not shown) [Example 60, 4-Chloro-7-(4-{5-[4-({4-[2-(2,6-dioxopiperidin-3-yl)-7-methoxy-1-oxo-2,3-dihydro-1H-isoindol-5-yl]piperazin-1-yl}methyl)piperidin-1-yl]pyridin-2-yl}piperidin-1-yl)-1H-indole-3-carbonitrile]: in experiment [1], the DC50 was 23 nM and the Dmax came out at 57%. Also, in experiment [2], the DC50 is 5 nM and the Dmax amounted to 93%.
For the compound `COc1nc(N2CCN(CC3CCN(c4ccc(C5CCN(c6ccc(Cl)c7c(C#N)c[nH]c67)CC5)nc4)CC3)CC2)cc2c1C(=O)N(C1CCC(=O)NC1=O)C2` (stereo not shown) [Example 61, 4-Chloro-7-(4-{5-[4-({4-[2-(2,6-dioxopiperidin-3-yl)-4-methoxy-3-oxo-2,3-dihydro-1H-pyrrolo[3,4-c]pyridin-6-yl]piperazin-1-yl}methyl)piperidin-1-yl]pyridin-2-yl}piperidin-1-yl)-1H-indole-3-carbonitrile], the results for the DC50 in experiment [1] and in experiment [2] were 25 nM and 6 nM, respectively. Also, the figures for the Dmax in experiment [1] and in experiment [2] were 65% and 94%, respectively.
Regarding `N#Cc1c[nH]c2c(N3CCC(c4ccc(N5CCC(CN6CCC(n7ccc8c(N9CCC(=O)NC9=O)cccc87)CC6)CC5)cn4)CC3)ccc(Cl)c12` [Example 62, 4-Chloro-7-(4-{5-[4-({4-[4-(2,4-dioxo-1,3-diazinan-1-yl)-1H-indol-1-yl]piperidin-1-yl}methyl)piperidin-1-yl]pyridin-2-yl}piperidin-1-yl)-1H-indole-3-carbonitrile], the DC50 is 80 nM in experiment [1] and 7 nM in experiment [2]. For the same compound, the Dmax is 71% in experiment [1] and 99% in experiment [2].
For the compound `N#Cc1c[nH]c2c(N3CCC(c4ccc(N5CCC(CN6CCC(n7ccc8c(N9CCC(=O)NC9=O)cccc87)CC6)CC5)nn4)CC3)ccc(Cl)c12` [Example 63, 4-Chloro-7-(4-{6-[4-({4-[4-(2,4-dioxo-1,3-diazinan-1-yl)-1H-indol-1-yl]piperidin-1-yl}methyl)piperidin-1-yl]pyridazin-3-yl}piperidin-1-yl)-1H-indole-3-carbonitrile], in experiment [1], the DC50 is 16 nM and the Dmax was 63%. Moreover, in experiment [2], the DC50 was found to be 6 nM and the Dmax turned out to be 94%.
